Source: US20260193268A1, “TRICYCLIC PI3Ka INHIBITOR, PREPARATION METHOD THEREFOR, AND PHARMACEUTICAL USE THEREOF” (WIGEN BIOMEDICINE TECHNOLOGY (SHANGHAI) CO., LTD., priority 2022, published 2026)
Like-named read-outs stand apart in the source and are kept apart here.

What was measured:
[1] = system: HCC1954 cells (with PI3Kα H1047R mutation); experiment: In vitro inhibition of HCC1954 cell proliferation (CellTiter-Lumi); assay type: cell-based; conditions: Homo sapiens, HCC1954, 144 h
Procedure: Assay for In Vitro Inhibition of HCC1954 Cell Proliferation by Compounds of the Present Disclosure
The growth of the cells was evaluated, and the IC50 for the inhibition of cell growth by the compounds was calculated.

[2] = system: MCF-7 cells (with PI3Kα E545K mutation); experiment: In vitro inhibition of MCF-7 cell proliferation (CellTiter-Lumi); assay type: cell-based; conditions: Homo sapiens, MCF7, 144 h
Method in brief: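 MCF-7 (PI3Kα E545K) seeded at 2000 cells/well; serially diluted compounds added next day and exposed for 144 h. Cellular ATP read by CellTiter-Lumi luminescence; IC50 for growth inhibition calculated.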

[3] = HCC1954 cells, 144 h, CellTiter-Lumi, numeric values, read-out: Inhibitory activity against HCC1954 cells (IC50)
[4] = numeric values, read-out: Inhibitory activity against MCF-7 cells (IC50)
[5] = HCC1954 cells, 144 h, CellTiter-Lumi, class symbols, read-out: Inhibitory activity against HCC1954 cells (IC50), class symbols
[6] = class symbols, read-out: Inhibitory activity against MCF-7 cells (IC50), class symbols

IC50 [1, 3] [nM] | IC50 [2, 4] [nM] | IC50 [1, 5] [nM] | IC50 [2, 6] [nM] | SMILES | IC50 ([1]; read-out: Inhibitory activity against HCC1954 cells (IC50), class symbols) [nM]
4.9 | 6.9 | – | – | COCC#CC(=O)Nc1ccc(N2CC(N3CCN(c4ccc5c(c4)-c4nc(N6C(=O)OC[C@H]6C(F)F)cn4CCO5)CC3)C2)cc1 [Compound 168] | –
– | – | < 50 | < 50 | COCCNC(C)(C)C=C(C#N)C(=O)Nc1ccc(N2CC(N3CCN(c4ccc5c(c4)-c4nc(N6C(=O)OC[C@H]6C(F)F)cn4CCO5)CC3)C2)cc1 [Compound 218] | –
– | – | < 50 | < 50 | CC1CN(C(C)(C)C=C(C#N)C(=O)Nc2ccc(N3CC(N4CCN(c5ccc6c(c5)-c5nc(N7C(=O)OC[C@H]7C(F)F)cn5CCO6)CC4)C3)cc2)CC(C)N1 (stereo partly shown) [Compound 309] | –
– | – | 100 to 1000 | < 50 | C=CC(=O)N1CC(C2CCN(c3ccc(-c4ccc5c(c4)-c4nc(N6C(=O)OC[C@H]6C(F)F)cn4CCO5)cc3)CC2)C1 [Compound 199] | –
– | – | < 50 | < 50 | Cc1nc(-c2cn3c(n2)-c2cc(N4CCN(C5CN(c6ccc(NC(=O)C(C#N)=CC(C)(C)N)cc6)C5)CC4)ccc2OCC3)n(C(C)C)n1 [Compound 336] | –
– | – | 50 to 100 | < 50 | C=CC(=O)Nc1ccc2c(c1)CCN(C1CCN(c3ccc4c(c3)-c3nc(N5C(=O)OC[C@H]5C(F)F)cn3CCO4)CC1)C2 [Compound 204] | –
– | – | < 50 | < 50 | C=CC(=O)Nc1ccc(N2CC(N3CCN(c4ccc5c(c4)-c4nc(N6C(=O)OC[C@H]6C(F)F)cn4CCO5)CC3)C2)nc1C [Compound 216] | –
862 | 40 | – | – | C=CC(=O)N1CCN(CCC(=O)N2CCN(c3ccc4c(c3)-c3nc(N5C(=O)OC[C@H]5C(F)F)cn3CCO4)CC2)CC1 [Compound 13] | –
306 | 74 | – | – | C=C(F)C(=O)Nc1ccc(N2CC(CN3CCN(c4ccc5c(c4)-c4nc(N6C(=O)OC[C@H]6C(F)F)cn4CCO5)CC3)C2)cc1 [Compound 46] | –
230 | 41 | – | – | C=CC(=O)N1CCC(N2CCC(N3CCN(c4ccc5c(c4)-c4nc(N6C(=O)OC[C@H]6C(F)F)cn4CCO5)CC3)C2)CC1 (stereo partly shown) [Compound 89] | –
– | – | < 50 | < 50 | CC(=O)NC(C)(C)C=C(C#N)C(=O)Nc1ccc(N2CC(N3CCN(c4ccc5c(c4)-c4nc(N6C(=O)OC[C@H]6C(F)F)cn4CCO5)CC3)C2)c(Cl)c1 [Compound 357] | –
4 | 0.3 | – | – | C=CC(=O)Nc1ccc(N2CC(N3CCN(c4ccc5c(c4)-c4nc(N6C(=O)OC[C@H]6C(F)F)cn4CCO5)CC3)C2)cc1OC [Compound 173] | –
– | – | < 50 | < 50 | Cc1nc(-c2cn3c(n2)-c2cc(N4CCN(C5CN(c6ccc(NC(=O)C(C#N)=CC(C)(C)C)c(Cl)c6)C5)CC4)ccc2OCC3)n(C(C)C)n1 [Compound 370] | –
– | – | < 50 | < 50 | CC1(C=C(C#N)C(=O)Nc2ccc(N3CC(N4CCN(c5ccc6c(c5)-c5nc(N7C(=O)OC[C@H]7C(F)F)cn5CCO6)CC4)C3)c(F)c2)COC1 [Compound 233] | –
3.4 | 0.2 | – | – | C=CC(=O)Nc1ccc(N2CC(N3CCN(c4ccc5c(c4)-c4nc(N6C(=O)OC[C@H]6C(F)F)cn4CCO5)CC3)C2)c(OC)c1 [Compound 280] | –
– | – | < 50 | < 50 | CC(C)(N)C=C(C#N)C(=O)Nc1ccc(N2CC(N3CCN(c4ccc5c(c4)-c4nc(N6C(=O)OC[C@H]6C(F)F)cn4CCO5)CC3)C2)c(F)c1 [Compound 224] | –
– | – | < 50 | < 50 | CC=C(C#N)C(=O)Nc1ccc(N2CC(N3CCN(c4ccc5c(c4)-c4nc(N6C(=O)OC[C@H]6C(F)F)cn4CCO5)CC3)C2)nc1 [Compound 254] | –
– | – | 50 to 100 | < 50 | C=CC(=O)N1CCc2cc(CN3CCN(c4ccc5c(c4)-c4nc(N6C(=O)OC[C@H]6C(F)F)cn4CCO5)CC3)ccc2C1 [Compound 207] | –
– | – | < 50 | < 50 | CCC(C=C(C#N)C(=O)Nc1ccc(N2CC(N3CCN(c4ccc5c(c4)-c4nc(N6C(=O)OC[C@H]6C(F)F)cn4CCO5)CC3)C2)cc1)(CC)CC [Compound 389] | –
– | – | < 50 | < 50 | Cc1nc(-c2cn3c(n2)-c2cc(N4CCN(C5CN(c6ccc(NC(=O)C(C#N)=CC(C)(C)NC(=O)OC(C)(C)C)cc6Cl)C5)CC4)ccc2OCC3)n(C(C)C)n1 [Compound 373] | –
4.6 | 0.3 | – | – | C=CC(=O)Nc1ccc(N2CC(N3CCN(c4ccc5c(c4)-c4nc(N6C(=O)OC[C@H]6C(F)F)cn4CCO5)CC3)C2)c(Cl)c1 [Compound 195] | –
– | – | < 50 | < 50 | CC(C)(C)C=C(C#N)C(=O)Nc1ccc(N2CC(N3CCN(c4ccc5c(c4)-c4nc(N6C(=O)OC[C@H]6C(F)F)c(C6CC6)n4CCO5)CC3)C2)cc1 [Compound 322] | –

IC50 [1, 3] [nM] | IC50 [2, 4] [nM] | IC50 [1, 5] [nM] | IC50 [2, 6] [nM] | SMILES | IC50 ([1]; read-out: Inhibitory activity against HCC1954 cells (IC50), class symbols) [nM]
– | – | < 50 | < 50 | N#CC(=CC1(N)CC1)C(=O)Nc1ccc(N2CC(N3CCN(c4ccc5c(c4)-c4nc(N6C(=O)OC[C@H]6C(F)F)cn4CCO5)CC3)C2)cc1 [Compound 213] | –
9 | 2.7 | – | – | C=CC(=O)Nc1ccc(N2CC(N3CCN(c4ccc5c(c4)-c4nc(N6C(=O)OC[C@H]6C(F)F)cn4CCO5)CC3)C2)cc1F [Compound 124] | –
228 | 24 | – | – | CC(C)=CC(=O)CCCCC(=O)N1CC(N2CCN(c3ccc4c(c3)-c3nc(N5C(=O)OC[C@H]5C(F)F)cn3CCO4)CC2)C1 [Compound 157] | –
3 | 0.2 | – | – | C=CC(=O)Nc1ccc(N2CC(N3CCN(c4ccc5c(c4)-c4nc(N6C(=O)OC[C@H]6C(F)F)cn4CCO5)CC3)C2)cn1 [Compound 121] | –
– | – | < 50 | < 50 | CC(=O)NC(C)(C)C=C(C#N)C(=O)Nc1ccc(N2CC(N3CCN(c4ccc5c(c4)-c4nc(N6C(=O)OC[C@H]6C(F)F)cn4CCO5)CC3)C2)c(F)c1 [Compound 347] | –
551 | 76 | – | – | C=CC(=O)Nc1ccc(N2CC3(CCN(c4ccc5c(c4)-c4nc(N6C(=O)OC[C@H]6C(F)F)cn4CCO5)C3)C2)cc1 [Compound 93] | –
– | – | < 50 | < 50 | CNC(C)(C)C=C(C#N)C(=O)Nc1ccc(N2CCC(N3CCN(c4ccc5c(c4)-c4nc(N6C(=O)OCC6C(F)F)cn4CCO5)CC3)C2)cc1 (stereo not shown) [Compound 215] | –
9.4 | 1.2 | – | – | C=CC(=O)N1CCc2c1ccc(N1CC(N3CCN(c4ccc5c(c4)-c4nc(N6C(=O)OC[C@H]6C(F)F)cn4CCO5)CC3)C1)c2F [Compound 166] | –
– | – | < 50 | < 50 | C=CC(=O)Nc1ccc(N2CC(N3CCN(c4ccc5c(c4)-c4nc(N6C(=O)CC[C@H]6C(F)F)cn4CCO5)CC3)C2)cc1 [Compound 178] | –
75 | 13 | – | – | C=CC(=O)Nc1ccc(N2CCC(N3CCN(c4ccc5c(c4)-c4nc(N6C(=O)OC[C@H]6C(F)F)cn4CCO5)CC3)C2)cc1 (single isomer, unassigned) [Compound 29] | –
– | – | < 50 | < 50 | CN(C1COC1)C(C)(C)C=C(C#N)C(=O)Nc1ccc(N2CC(N3CCN(c4ccc5c(c4)-c4nc(N6C(=O)OC[C@H]6C(F)F)cn4CCO5)CC3)C2)cc1Cl [Compound 361] | –
84 | 15 | – | – | C=CC(=O)Nc1ccc(N2CC(N3CCN(c4ccc5c(c4)-c4nc(N6C(=O)OC[C@H]6C)cn4CCO5)CC3)C2)cc1 [Compound 131] | –
– | – | < 50 | < 50 | CC(C)(O)C=C(C#N)C(=O)Nc1ccc(N2CC(N3CCN(c4ccc5c(c4)-c4nc(N6C(=O)OC[C@H]6C(F)F)cn4CCO5)CC3)C2)c(F)c1 [Compound 230] | –
– | – | < 50 | < 50 | Cc1nc(-c2cn3c(n2)-c2cc(N4CCN(C5CN(c6ccc(NC(=O)C(C#N)=CC(C)(C)NC(=O)OC(C)(C)C)cn6)C5)CC4)ccc2OCC3)n(C(C)C)n1 [Compound 372] | –
– | – | < 50 | < 50 | CC1(C=C(C#N)C(=O)Nc2ccc(N3CC(N4CCN(c5ccc6c(c5)-c5nc(N7C(=O)OC[C@H]7C(F)F)cn5CCO6)CC4)C3)nc2)COC1 [Compound 251] | –
– | – | < 50 | < 50 | Cc1nc(-c2cn3c(n2)-c2cc(N4CCN(C5CN(c6ccc(NC(=O)C(C#N)=CC(C)(C)N(C)C7COC7)cc6)C5)CC4)ccc2OCC3)n(C(C)C)n1 [Compound 339] | –
– | – | < 50 | < 50 | COCCNC(C)(C)C=C(C#N)C(=O)Nc1ccc(N2CC(N3CCN(c4ccc5c(c4)-c4nc(N6C(=O)OC[C@H]6C(F)F)cn4CCO5)CC3)C2)nn1 [Compound 303] | –
55 | 22 | – | – | CC(C)C=C(C#N)C(=O)Nc1ccc(N2CC(N3CCN(c4ccc5c(c4)-c4nc(N6C(=O)OC[C@H]6C(F)F)cn4CCO5)CC3)C2)cc1 [Compound 144] | –
– | – | < 50 | < 50 | CNC1(C=C(C#N)C(=O)Nc2ccc(N3CC(N4CCN(c5ccc6c(c5)-c5nc(N7C(=O)OC[C@H]7C(F)F)cn5CCO6)CC4)C3)c(F)c2)CC1 [Compound 237] | –
– | – | 50 to 100 | < 50 | CC(C)=CC(=O)CCC(=O)N1CCN(Cc2ccc3c(c2)-c2nc(N4C(=O)OC[C@H]4C(F)F)cn2CCO3)CC1 [Compound 192] | –
– | – | < 50 | < 50 | CC(C)(C=C(C#N)C(=O)Nc1ccc(N2CC(N3CCN(c4ccc5c(c4)-c4nc(N6C(=O)OC[C@H]6C(F)F)cn4CCO5)CC3)C2)cc1)NC1(C)COC1 [Compound 380] | –

SMILES | IC50 [1, 3] [nM] | IC50 [2, 4] [nM] | IC50 [1, 5] [nM] | IC50 [2, 6] [nM] | IC50 ([1]; read-out: Inhibitory activity against HCC1954 cells (IC50), class symbols) [nM]
CCOP(=O)(NC(C)(C)C=C(C#N)C(=O)Nc1ccc(N2CC(N3CCN(c4ccc5c(c4)-c4nc(N6C(=O)OC[C@H]6C(F)F)cn4CCO5)CC3)C2)cc1)OCC [Compound 332] | – | – | – | < 50 | < 50
